“Also recorded” adds a separate entry of the source. No end group written: not given here.
Key:
[1] = test system: rat splenocytes; test: Differentiation of rat splenocytes into allospecific CTL in vitro; assay type: cell-based
[2] = test system: Lew specific CTL precursors in splenocytes; test: Limiting dilution assay for CTL precursors in splenocytes of treated rats; assay type: in vivo, rat; conditions: treated on the day of splenectomy or 24 hours earlier
Description: The effect of peptides on CTL precursor frequencies in splenocytes was tested as follows. Limiting dilution analysis was carried out essentially as described (Moeller et al. 1993, supra; Skinner and Marbrook. J. Exp. Med. (1976) 143:1562). Briefly, spleens were removed from naive animals or from animals that had received an allograft a minimum of 60 days earlier and then teased into a single cell suspension. Responder cells were plated from 1000 to 40,000 cells per well (24 replicates per concentration) into round bottom microliter wells in RPMI 1640 supplemented with 10% fetal bovine serum (Hyclone, Logan, Utah), 2 mM L-glutamine, 5×10^5M μ-mercaptoethanol, 100 U/ml penicillin, 100 μg/ml streptomycin, 20% supernatant from Concanavalin A activated rat spleen cells, and 50 μM α-methyl mannoside. Then, 5×10^5 irradiated (2000 rads) stimulator cells were added to each well and plates were incubated in a humidified CO2 incubator. […] Aliquots of supernatant were counted in a gamma counter and CTL precursor frequency determined by linear regression (Skinner and Marbrook. 1976, supra). […]
PVG (RT1^c) or ACI (RT1^a) rats were treated with a single intravenous injection of saline or 2 mg of A2.75-84, B7.75-84, B2702.75-84, or RT1^a.75-84 peptide. […] CTL precursor frequency was determined by linear regression analysis.

[3] = test system: purified T cells; test: Proliferation of purified T cells stimulated by immobilized anti-CD3; assay type: cell-based, human; conditions: immobilized anti-CD3 antibody
Description: PBL were isolated from normal donors by centrifugation over Ficoll-Hypaque. In some cases, T cells were purified from this preparation using the method of Secrist et al. [J Exp. Med. (1993) 178:2123]. Briefly, cells isolated over Ficoll-Hypaque were incubated for 1 hour in Petri dishes. Nonadherent cells were passed over a nylon wool column and the resulting population was >90% CD3+ by FACS analysis. CD8+ CTL lines specific for HLA-A2, B7, B27, B48, or Cw4 were generated and maintained in long-term culture as previously described [Buxton et al., J Exp. Med. (1992) 175:809; Wesley et al., Hum. Immunol. (1993) 36:149]. Jurkat E6-1 and the T cell receptor negative Jurkat, JRT3-T3.5, were obtained from the American Type Culture Collection (ATCC; Rockville, Md.). […]
10^5 cells were added to microtiter wells that had been coated with anti-CD3 (Sigma, St. Louis, Mo.) at 5 μg/ml. […] Plates were harvested on a PHD Cell Harvester 24 hours later and [^3H]-thymidine incorporation determined by scintillation counting.
Peptides were evaluated for effects on the proliferation of purified T cells stimulated by immobilized anti-CD3 antibody. […]

[4] = test system: draining lymph nodes; test: Lymph node proliferation assay (footpad challenge with allogeneic versus syngeneic splenocytes); assay type: in vivo, rat; conditions: treated within 24 hours of footpad injection
Description: ACI or PVG rats (200 g) were injected intravenously with peptides dissolved in saline on day 0. On the indicated days thereafter, the left rear footpads of the rats were injected with 5×10^6 splenocytes from a syngeneic donor and the right rear footpads with 5×10^6 splenocytes from an allogeneic Lew donor (Moeller etal. Transplantation (1993)55:650). See also Twist and Barnes Transplantation (1973) 15:182; Fanslow et al. Science (1990) 248:739). Seven days after the footpad injection, the animals were sacrificed and the popliteal lymph nodes removed. A single cell suspension was prepared, and the cell number determined using a hemocytometer.
PVG or ACI rats (3 per group) were given a single intravenous injection of 2 mg of each of the four peptides or saline. On the day of treatment, or on days 1, 7, or 10 after treatment, the right footpads were injected with 5×10^6 syngeneic splenocytes while the left footpads were injected with 5×10^6 allogeneic Lew splenocytes. Seven days after the footpad injections, the draining lymph nodes were removed, a single cell suspension was prepared, and the cell number determined.

[5] = test system: abdominal heterotopic heart allografts; test: Cardiac allograft survival in rats (Lew heart into ACI recipients); assay type: in vivo, rat; conditions: peptide in the two weeks before or 4 days after surgery plus CsA on days 0-4, rats
Excerpt: Vascularized cardiac allografts were heterotypically transplanted into the abdomen of recipient rats using a modification of the technique of Ono and Lindsay (Ono and Lindsey J. Thorac. Cardiovasc. Surg. (1969) 57:225). Abdominal allografts were palpated on a daily basis to assess graft function, and rejection was deemed complete when palpable ventricular contractions ceased.
Cyclosporin A (CsA, Sandoz Pharmaceuticals Corporation, Base, Switzerland) dissolved in olive oil was given orally through a gavage tube at the indicated dose. Peptides were dissolved in water or saline and given intravenously or by gavage as indicated.
Since the B7.75-84 and B2702.75-84 peptides blocked cellular immunity in vivo, we examined their effects on allograft survival in rats. ACI (RT1^a) recipients were given abdominal heterotopic heart allografts from Lew donors (Moeller et al. 1993, supra; Ono and Lindsey. 1969, supra). Graft function was monitored by daily abdominal palpation, and rejection was scored as complete when the palpable ventricular contractions ceased.

[6] = test system: CD8+ CTL line specific for HLA-A2; test: Cytotoxicity assay: inhibition of lysis by established CTL (51Cr-labeled JY targets); assay type: cell-based, human
Description: CTL assays were performed as described using ^51Cr-labeled EBV transformed B cells expressing the appropriate HLA allele as targets [[…] et al., J. Immunol. (1982) 129:2001]. In the present protocol, a CD8+ CTL line specific for HLA-A2 was tested in the presence of various peptides for lysis of ^51Cr-labeled JY targets. Peptides were added to a final concentration of 100 μg/ml at the initiation of the 4 h assay. Each determination was the mean of triplicate wells.

| Substance | blocking of differentiation of rat splenocytes into allospecific CTL [1] | precursor frequency of Lew specific cells compared with saline [2] | inhibition of proliferation of purified T cells (3H-thymidine incorporation) [3] | ratio of the number of cells recovered, allogeneic versus syngeneic side [4] | allograft rejection under peptide in combination with CsA [5] | inhibition of lysis by established CTL ([6]; HLA-A2 specific CD8+ CTL, 51Cr-labeled JY targets, peptide 100 μg/ml, 4 h assay) | potency relative to B2702.75-84, based on the concentration required to achieve 50% inhibition of cytotoxicity [6] |
| --- | --- | --- | --- | --- | --- | --- | --- |
| B2702.75-84: synthetic peptide, HLA-B2702 residues 75-84, sequence RENLRIALRY [Peptide B2702.75-84] | blocked the differentiation of rat splenocytes into allospecific CTL in vitro | The same frequency | do not | A similar ratio | rejected similarly to allografts in animals treated with CsA alone; also recorded: did not show prevention of allograft rejection | inhibited lysis by established CTL | – |
| WDRETQICKAKAQTDRENLRIALRY [Peptide B2702.60-84] | – | – | – | – | – | – | approximately 5 fold |
